Patent US10975068B2, “6-aminopyridin-3-yl thiazoles as modulators of RORγT” (Janssen Pharmaceutica NV, priority 2016, dated 2021)

Key:
[1] = biological target: human RORγt ligand binding domain (RORγt LBD) (Homo sapiens (Human), UniProt P51449); experiment: RORγt ThermoFluor® assay (thermal shift binding); conditions: read-out: ThermoFluor® Assay, Kd
How it was run: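 Binding was inferred from thermal stabilisation (ΔTm) of the E. coli-expressed RORγt LBD (0.065 mg/mL), monitored by 1,8-ANS (60 μM) emission at 500 nm during a 1 °C/min ramp. Buffer was Hepes 100 mM pH 7.0 with NaCl, GSH and Tween-20.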

[2] = biological target: full-length human RORγt (Homo sapiens (Human), UniProt P51449); experiment: RORγt (full-length human) reporter assay, Conditions B or C; type: cell-based; conditions: for inhibition at 3 µM: at 3 μM compound concentration; for IC50: read-out: RORγt (FL) Reporter Assay B or C, IC50
How it was run: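 Readout is dual luciferase: firefly (GAL4-driven) normalized to DMSO-only and saturating-reference controls, then to CMV-Renilla. Full-length human RORγt fused to GAL4-DBD was transiently expressed in HEK293T; compound exposure ran overnight (16-20 h) starting 4-6 h after transfection, final FBS 1.3%, DMSO 0.1%.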

[3] = read-out: RORγt (FL) Reporter Assay B or C, % inhibition

Chain of full-length human RORγt (P51449 other isoform, or with tags, fused parts or gaps): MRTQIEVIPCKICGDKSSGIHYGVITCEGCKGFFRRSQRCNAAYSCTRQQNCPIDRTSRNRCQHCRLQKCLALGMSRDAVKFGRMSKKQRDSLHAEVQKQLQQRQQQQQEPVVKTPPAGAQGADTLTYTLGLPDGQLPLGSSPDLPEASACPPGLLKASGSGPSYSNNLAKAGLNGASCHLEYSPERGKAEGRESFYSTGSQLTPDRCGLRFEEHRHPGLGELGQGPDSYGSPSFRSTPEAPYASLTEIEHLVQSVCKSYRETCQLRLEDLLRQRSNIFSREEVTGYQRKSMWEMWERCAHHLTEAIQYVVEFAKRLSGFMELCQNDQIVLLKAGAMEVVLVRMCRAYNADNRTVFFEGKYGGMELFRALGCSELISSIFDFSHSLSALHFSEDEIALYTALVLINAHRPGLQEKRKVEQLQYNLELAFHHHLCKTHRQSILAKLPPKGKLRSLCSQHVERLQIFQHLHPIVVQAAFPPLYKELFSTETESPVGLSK
Chain of human RORγt ligand binding domain (RORγt LBD) (P51449 other isoform, or with tags, fused parts or gaps): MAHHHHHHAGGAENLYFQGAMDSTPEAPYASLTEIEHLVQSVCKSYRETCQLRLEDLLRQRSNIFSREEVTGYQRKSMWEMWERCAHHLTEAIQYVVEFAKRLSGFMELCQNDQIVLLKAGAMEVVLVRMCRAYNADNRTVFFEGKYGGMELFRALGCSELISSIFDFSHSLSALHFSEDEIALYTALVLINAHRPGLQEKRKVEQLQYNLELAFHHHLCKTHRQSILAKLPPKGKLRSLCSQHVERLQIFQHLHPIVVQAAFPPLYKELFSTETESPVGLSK

SMILES | Kd [1] | inhibition at 3 µM [2, 3] | IC50 [2] | inhibition at 0.33 µM ([2]; at 0.33 μM compound concentration, read-out: RORγt (FL) Reporter Assay B or C, % inhibition)
C[C@H]1CCCN1C(=O)c1nc(C(=O)NC2CCS(=O)(=O)CC2)sc1-c1cnc(NC2(C)CCC2)cc1C(F)F [Example 324, (S)-5-(4-(Difluoromethyl)-6-((1-methylcyclobutyl)amino)pyridin-3-yl)-N-(1,1-dioxidotetrahydro-2H-thiopyran-4-yl)-4-(2-methylpyrrolidine-1-carbonyl)thiazole-2-carboxamide] | 2.4 nM | 93% | 38 nM | –
C[C@@H](NC(=O)c1nc(C(=O)N2C3CCC2CC3)c(-c2cnc(NC3(C)CCC3)cc2C(F)F)s1)C(C)(C)O [Example 329, 4-((1s,4s)-7-Azabicyclo[2.2.1]heptane-7-carbonyl)-5-(4-(difluoromethyl)-6-((1-methylcyclobutyl)amino)pyridin-3-yl)-N—((R)-3-hydroxy-3-methylbutan-2-yl)thiazole-2-carboxamide] | 1.7 nM | 89% | 38 nM | –
CC1(Nc2cc(C(F)F)c(-c3sc(C(=O)N[C@H]4C[C@H](O)C4)nc3C(=O)N3C4CCC3CC4)cn2)CCC1 [Example 330, 4-((1s,4s)-7-Azabicyclo[2.2.1]heptane-7-carbonyl)-5-(4-(difluoromethyl)-6-((1-methylcyclobutyl)amino)pyridin-3-yl)-N-((1r,3R)-3-hydroxycyclobutyl)thiazole-2-carboxamide] | 4.2 nM | 93% | 16 nM | –
CC1(Nc2cc(C(F)F)c(-c3sc(C(=O)NC4CCS(=O)(=O)CC4)nc3C(=O)N3C4CCC3CC4)cn2)CCC1 [Example 331, 4-((1s,4s)-7-Azabicyclo[2.2.1]heptane-7-carbonyl)-5-(4-(difluoromethyl)-6-((1-methylcyclobutyl)amino)pyridin-3-yl)-N-(1,1-dioxidotetrahydro-2H-thiopyran-4-yl)thiazole-2-carboxamide] | 1.5 nM | 81% | 23 nM | –
C[C@H]1CCCN1C(=O)c1nc(C(=O)N[C@H]2C[C@@](C)(O)C2)sc1-c1cnc(NC(C)(C)C)cc1C(F)(F)F [Example 337, 5-[6-(tert-Butylamino)-4-(trifluoromethyl)-3-pyridyl]-N-(3-hydroxy-3-methyl-cyclobutyl)-4-[(2S)-2-methylpyrrolidine-1-carbonyl]thiazole-2-carboxamide] | 2.9 nM | 105% | 13 nM | –
C[C@H]1CCCN1C(=O)c1nc(C(=O)NCCC(C)(C)O)sc1-c1cnc(NC(C)(C)C)cc1C(F)(F)F [Example 338, 5-[6-(tert-Butylamino)-4-(trifluoromethyl)-3-pyridyl]-N-(3-hydroxy-3-methyl-butyl)-4-[(2S)-2-methylpyrrolidine-1-carbonyl]thiazole-2-carboxamide] | 3.9 nM | 107% | 7.7 nM | –
C[C@H]1CCCN1C(=O)c1nc(C(=O)N(C)CC(C)(C)O)sc1-c1cnc(NC(C)(C)C)cc1C(F)(F)F [Example 340, 5-[6-(tert-Butylamino)-4-(trifluoromethyl)-3-pyridyl]-N-(2-hydroxy-2-methyl-propyl)-N-methyl-4-[(2S)-2-methylpyrrolidine-1-carbonyl]thiazole-2-carboxamide] | 5.3 nM | 111% | 11 nM | –
CC(C)[C@@H](C)NC(=O)c1nc(C(=O)N2CCC[C@@H]2C)c(-c2cnc(NC(C)(C)C)cc2C(F)(F)F)s1 [Example 341, 5-[6-(tert-Butylamino)-4-(trifluoromethyl)-3-pyridyl]-N-[(1R)-1,2-dimethylpropyl]-4-[(2S)-2-methylpyrrolidine-1-carbonyl]thiazole-2-carboxamide] | 4 nM | 107% | 5.7 nM | –
C[C@H]1CCCN1C(=O)c1nc(C(=O)NC(C)(C)C(C)(C)O)sc1-c1cnc(NC(C)(C)C)cc1C(F)(F)F [Example 342, 5-[6-(tert-Butylamino)-4-(trifluoromethyl)-3-pyridyl]-N-(2-hydroxy-1,1,2-trimethyl-propyl)-4-[(2S)-2-methylpyrrolidine-1-carbonyl]thiazole-2-carboxamide] | 5.7 nM | 103% | 40 nM | –
C[C@H]1CCCN1C(=O)c1nc(C(=O)N[C@H](C)C(C)(C)O)sc1-c1cnc(NCC(C)(C)C)cc1C(F)F [Example 343, 5-[4-(Difluoromethyl)-6-(2,2-dimethylpropylamino)-3-pyridyl]-N-[(1R)-2-hydroxy-1,2-dimethyl-propyl]-4-[(2S)-2-methylpyrrolidine-1-carbonyl]thiazole-2-carboxamide] | 5.1 nM | 98% | 310 nM | –
C[C@H](NC(=O)c1nc(C(=O)N2CCC[C@@H]2C)c(-c2cnc(NCC(C)(C)C)cc2C(F)F)s1)C(C)(C)O [Example 344, 5-[4-(Difluoromethyl)-6-(2,2-dimethylpropylamino)-3-pyridyl]-N-[(1S)-2-hydroxy-1,2-dimethyl-propyl]-4-[(2S)-2-methylpyrrolidine-1-carbonyl]thiazole-2-carboxamide] | 3.2 nM | – | 5.3 nM | 53%

Results, then the compound that gave them:

Kd [1] | inhibition at 3 µM [2, 3] | IC50 [2] | inhibition at 0.33 µM ([2]; at 0.33 μM compound concentration, read-out: RORγt (FL) Reporter Assay B or C, % inhibition) | SMILES
1.2 nM | 96% | 120 nM | – | C[C@H]1CC(F)(F)CN1C(=O)c1nc(C(=O)N[C@H](C)C(C)(C)O)sc1-c1cnc(NC2(C)CCC2)cc1C(F)F [Example 325, 4-((S)-4,4-Difluoro-2-methylpyrrolidine-1-carbonyl)-5-(4-(difluoromethyl)-6-((1-methylcyclobutyl)amino)pyridin-3-yl)-N—((R)-3-hydroxy-3-methylbutan-2-yl)thiazole-2-carboxamide]
0.71 nM | 90% | 97 nM | – | C[C@H](NC(=O)c1nc(C(=O)N2CC(F)(F)C[C@@H]2C)c(-c2cnc(NC3(C)CCC3)cc2C(F)F)s1)C(C)(C)O [Example 326, 4-((S)-4,4-Difluoro-2-methylpyrrolidine-1-carbonyl)-5-(4-(difluoromethyl)-6-((1-methylcyclobutyl)amino)pyridin-3-yl)-N—((S)-3-hydroxy-3-methylbutan-2-yl)thiazole-2-carboxamide]
2 nM | 93% | 11 nM | – | C[C@H]1CC(F)(F)CN1C(=O)c1nc(C(=O)N[C@H]2C[C@H](O)C2)sc1-c1cnc(NC2(C)CCC2)cc1C(F)F [Example 327, 4-((S)-4,4-Difluoro-2-methylpyrrolidine-1-carbonyl)-5-(4-(difluoromethyl)-6-((1-methylcyclobutyl)amino)pyridin-3-yl)-N-((1r,3S)-3-hydroxycyclobutyl)thiazole-2-carboxamide]
0.31 nM | 87% | 51 nM | – | C[C@H]1CC(F)(F)CN1C(=O)c1nc(C(=O)NC2CCS(=O)(=O)CC2)sc1-c1cnc(NC2(C)CCC2)cc1C(F)F [Example 328, (S)-4-(4,4-Difluoro-2-methylpyrrolidine-1-carbonyl)-5-(4-(difluoromethyl)-6-((1-methylcyclobutyl)amino)pyridin-3-yl)-N-(1,1-dioxidotetrahydro-2H-thiopyran-4-yl)thiazole-2-carboxamide]
1.5 nM | 107% | 89 nM | – | C[C@H]1CCCN1C(=O)c1nc(C(=O)N[C@H](C)C(C)(C)O)sc1-c1cnc(N[C@H](C2CC2)C(F)(F)F)cc1C(F)F [Example 332, 5-(6-(((R)-1-Cyclopropyl-2,2,2-trifluoroethyl)amino)-4-(difluoromethyl)pyridin-3-yl)-N—((R)-3-hydroxy-3-methylbutan-2-yl)-4-((S)-2-methylpyrrolidine-1-carbonyl)thiazole-2-carboxamide]
0.78 nM | 98% | 30 nM | – | C[C@H](NC(=O)c1nc(C(=O)N2CCC[C@@H]2C)c(-c2cnc(N[C@H](C3CC3)C(F)(F)F)cc2C(F)F)s1)C(C)(C)O [Example 333, 5-(6-(((R)-1-Cyclopropyl-2,2,2-trifluoroethyl)amino)-4-(difluoromethyl)pyridin-3-yl)-N—((S)-3-hydroxy-3-methylbutan-2-yl)-4-((S)-2-methylpyrrolidine-1-carbonyl)thiazole-2-carboxamide]
1.4 nM | 106% | 7 nM | – | C[C@H]1CCCN1C(=O)c1nc(C(=O)N[C@H](C)C(C)(C)O)sc1-c1cnc(NCC(C)(C)C)cc1C(F)(F)F [Example 334, 5-[6-(2,2-Dimethylpropylamino)-4-(trifluoromethyl)-3-pyridyl]-N-[(1R)-2-hydroxy-1,2-dimethyl-propyl]-4-[(2S)-2-methylpyrrolidine-1-carbonyl]thiazole-2-carboxamide]
1.3 nM | 102% | 40 nM | – | C[C@H]1CCCN1C(=O)c1nc(C(=O)N[C@H](C)C(C)(C)O)sc1-c1cnc(NC(C)(C)C)cc1C(F)(F)F [Example 335, 5-[6-(tert-Butylamino)-4-(trifluoromethyl)-3-pyridyl]-N-[(1R)-2-hydroxy-1,2-dimethyl-propyl]-4-[(2S)-2-methylpyrrolidine-1-carbonyl]thiazole-2-carboxamide]
0.97 nM | 109% | 2.9 nM | – | C[C@H]1CCCN1C(=O)c1nc(C(=O)NC(C)(C)CO)sc1-c1cnc(NC(C)(C)C)cc1C(F)(F)F [Example 339, 5-[6-(tert-Butylamino)-4-(trifluoromethyl)-3-pyridyl]-N-(2-hydroxy-1,1-dimethyl-ethyl)-4-[(2S)-2-methylpyrrolidine-1-carbonyl]thiazole-2-carboxamide]
